30 compounds from US20170210738A1, “GLUCOSE TRANSPORT INHIBITORS” (Bayer Pharma Aktiengesellschaft, priority 2014, published 2017) can be followed below.

For this assay, the target named is T1, GLUT1 (Homo sapiens, UniProt P11166).
T1 construct: endogenous in cells; host or cells: DLD1 or CHO-K1
T1 sequence (P11166 1-492): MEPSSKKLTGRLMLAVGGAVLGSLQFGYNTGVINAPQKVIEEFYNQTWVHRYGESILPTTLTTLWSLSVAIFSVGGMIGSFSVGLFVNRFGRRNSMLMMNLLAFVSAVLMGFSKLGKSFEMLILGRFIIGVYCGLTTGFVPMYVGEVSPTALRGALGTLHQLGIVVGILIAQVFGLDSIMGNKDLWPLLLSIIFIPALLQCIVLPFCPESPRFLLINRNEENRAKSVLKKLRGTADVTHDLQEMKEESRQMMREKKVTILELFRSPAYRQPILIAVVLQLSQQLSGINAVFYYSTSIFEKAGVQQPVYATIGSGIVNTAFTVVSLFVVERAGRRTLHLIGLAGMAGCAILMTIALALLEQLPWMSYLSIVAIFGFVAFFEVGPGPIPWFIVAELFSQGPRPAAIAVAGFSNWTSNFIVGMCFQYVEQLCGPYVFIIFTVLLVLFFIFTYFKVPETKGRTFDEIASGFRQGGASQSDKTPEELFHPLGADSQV
The experiment in a line: Indirect measurement of GLUT activity by quantification of intracellular ATP levels: glucose induced ATP increase (GLUT1 inhibition). Format: cell-based. The note with it: DLD1 cells; 1 mM glucose, 1 uM Rotenone, 15 min; CellTiter-Glo ATP levels; IC50 values standardized to cytochalasin B IC50 values; read-out: IC50 regarding glucose induced ATP increase (GLUT1 inhibition). The text has this:
Indirect Measurement of GLUT Activity by Quantification of Intracellular ATP Levels
It is well known that a combination of small-molecule inhibitors of mitochondrial electron transport chain and glucose catabolism synergistically suppress ATP production and impair cellular viability (Ulanovskaya et al., 2008, 2011; Liu, et al. 2001). We therefore used DLD1 or CHO-K1 cells in combination with an oxidative phosphorylation inhibitor to identify GLUT inhibitors. Cell lines were maintained in DMEM medium supplemented with 10% FCS and 1% Penicillin-Streptomycin solution and 2% Glutamax. The cells were treated with trypsin and seeded into 384 plates at a density of 4000 cells/well. The cells were then cultured overnight in glucose free media containing 1% FCS to reduce intracellular ATP levels. After 24 h the cells were incubated at 37° C. containing the appropriate glucose or in case of GLUT2 fructose concentration (1 mM and 30 mM respectively) with or without compounds and 1 uM Rotenone for 15 min. The CellTiter-Glo® Luminescent Cell Viability Assay from Promega was then used to measure ATP levels. Compounds able to reduce the ATP levels within 15 min of glucose application were considered to be glucose uptake inhibitors.
Background: Cellular ATP, detected with luciferase, serves as a proxy for viable cell number.

Broadly, the IC50 is the midpoint of a concentration-inhibition curve. Take `Cc1c(NC(=O)c2cc(C(F)(F)F)nc3cc(F)c(F)cc23)cnn1Cc1ccc(F)cc1` [Example 2, 6,7-difluoro-N-[1-(4-fluorobenzyl)-5-methyl-1H-pyrazol-4-yl]-2-(trifluoromethyl)quinoline-4-carboxamide]: the IC50 is 0.124 µM.

As to `COc1cc(C(=O)Nc2cnn(Cc3ccc(F)cc3)c2C)c2ccccc2n1` [Example 3, N-[1-(4-fluorobenzyl)-5-methyl-1H-pyrazol-4-yl]-2-methoxyquinoline-4-carboxamide], the half-inhibitory concentration (IC50) was 0.152 µM.

Consider `Cc1c(NC(=O)c2cc(C(F)(F)F)nc3ccc(Br)cc23)cnn1Cc1ccc(F)cc1` [Example 4, 6-bromo-N-[1-(4-fluorobenzyl)-5-methyl-1H-pyrazol-4-yl]-2-(trifluoromethyl)quinoline-4-carboxamide], for which the IC50 was 0.012 µM.

With `Cc1c(NC(=O)c2cc(C(N)=O)nc3ccccc23)cnn1Cc1ccc(F)cc1` [Example 5, N^4-[1-(4-fluorobenzyl)-5-methyl-1H-pyrazol-4-yl]quinoline-2,4-dicarboxamide], the half-maximal inhibitory concentration (IC50) worked out at 0.018 µM.

`Cc1c(NC(=O)c2cc(C3CC3)nc3ccc(F)cc23)cnn1Cc1ccc(F)cc1` [Example 6, 2-cyclopropyl-6-fluoro-N-[1-(4-fluorobenzyl)-5-methyl-1H-pyrazol-4-yl]quinoline-4-carboxamide]: the half-maximal inhibitory concentration (IC50) is 0.091 µM.

Regarding `Cc1c(NC(=O)c2cc(C(F)(F)F)nc3c(Cl)cc(Cl)cc23)cnn1Cc1ccc(F)cc1` [Example 7, 6,8-dichloro-N-[1-(4-fluorobenzyl)-5-methyl-1H-pyrazol-4-yl]-2-(trifluoromethyl)quinoline-4-carboxamide], the IC50 was found to be 0.185 µM.

Consider `Cc1c(NC(=O)c2cc(C(F)(F)F)nc3ccc(Br)cc23)cnn1Cc1ccc(C#N)cc1` [Example 8, 6-bromo-N-[1-(4-cyanobenzyl)-5-methyl-1H-pyrazol-4-yl]-2-(trifluoromethyl)quinoline-4-carboxamide], for which the half-inhibitory concentration (IC50) stood at 0.012 µM.

`Cc1c(NC(=O)c2cc(C(N)=O)nc3ccccc23)cnn1Cc1ccc(C#N)cc1` [Example 9, N^4-[1-(4-cyanobenzyl)-5-methyl-1H-pyrazol-4-yl]quinoline-2,4-dicarboxamide]: the half-inhibitory concentration (IC50) turned out to be 0.0089 µM.

Consider `COc1ccc(Cn2ncc(NC(=O)c3cc(OC)nc4ccccc34)c2C)cc1` [Example 11, 2-methoxy-N-[1-(4-methoxybenzyl)-5-methyl-1H-pyrazol-4-yl]quinoline-4-carboxamide], for which the half-maximal inhibitory concentration (IC50) came to 0.019 µM.

For the compound `COc1ccc(Cn2ncc(NC(=O)c3cc(C(F)(F)F)nc4ccc(Br)cc34)c2C)cc1` [Example 12, 6-bromo-N-[1-(4-methoxybenzyl)-5-methyl-1H-pyrazol-4-yl]-2-(trifluoromethyl)quinoline-4-carboxamide], the IC50 was 0.004 µM.

Take `COc1ccc(Cn2ncc(NC(=O)c3cc(C(N)=O)nc4ccccc34)c2C)cc1` [Example 13, N^4-[1-(4-methoxybenzyl)-5-methyl-1H-pyrazol-4-yl]quinoline-2,4-dicarboxamide]: the 50% inhibitory concentration (IC50) was 0.0022 µM.

As for `Cc1c(NC(=O)c2cc(C(F)(F)F)nc3ccc(Br)cc23)cnn1Cc1ccccc1C#N` [Example 14, 6-bromo-N-[1-(2-cyanobenzyl)-5-methyl-1H-pyrazol-4-yl]-2-(trifluoromethyl)quinoline-4-carboxamide], the half-inhibitory concentration (IC50) is 0.173 µM.

Regarding `Cc1c(NC(=O)c2cc(C(N)=O)nc3ccccc23)cnn1Cc1ccccc1C#N` [Example 15, N^4-[1-(2-cyanobenzyl)-5-methyl-1H-pyrazol-4-yl]quinoline-2,4-dicarboxamide], the IC50 was 0.755 µM.

As for `O=C(Nc1cnn(Cc2ccc(F)cc2)c1C(=O)O)c1cc(C(F)(F)F)nc2ccc(Br)cc12` [Example 17, 4-({[6-bromo-2-(trifluoromethyl)quinolin-4-yl]carbonyl}amino)-1-(4-fluorobenzyl)-1H-pyrazole-5-carboxylic acid], the IC50 amounted to 10.2 µM.

Take `NC(=O)c1c(NC(=O)c2cc(C(F)(F)F)nc3ccc(Br)cc23)cnn1Cc1ccc(F)cc1` [Example 18, 6-bromo-N-[5-carbamoyl-1-(4-fluorobenzyl)-1H-pyrazol-4-yl]-2-(trifluoromethyl)quinoline-4-carboxamide]: the half-inhibitory concentration (IC50) is 1.25 µM.

As to `COC(=O)c1c(NC(=O)c2cc(C(F)(F)F)nc3ccc(Br)cc23)cnn1Cc1ccc(C#N)cc1` [Example 19, methyl 4-({[6-bromo-2-(trifluoromethyl)quinolin-4-yl]carbonyl}amino)-1-(4-cyanobenzyl)-1H-pyrazole-5-carboxylate], the half-inhibitory concentration (IC50) worked out at 1.07 µM.

For the compound `N#Cc1ccc(Cn2ncc(NC(=O)c3cc(C(F)(F)F)nc4ccc(Br)cc34)c2C(=O)O)cc1` [Example 20, 4-({[6-bromo-2-(trifluoromethyl)quinolin-4-yl]carbonyl}amino)-1-(4-cyanobenzyl)-1H-pyrazole-5-carboxylic acid], the 50% inhibitory concentration (IC50) turned out to be 10.2 µM.

Regarding `CNC(=O)c1c(NC(=O)c2cc(C(F)(F)F)nc3ccc(Br)cc23)cnn1Cc1ccc(C#N)cc1` [Example 21, 6-bromo-N-[1-(4-cyanobenzyl)-5-(methylcarbamoyl)-1H-pyrazol-4-yl]-2-(trifluoromethyl)quinoline-4-carboxamide], the IC50 was found to be 3.96 µM.

As for `N#Cc1ccc(Cn2ncc(NC(=O)c3cc(C(F)(F)F)nc4ccc(Br)cc34)c2C(N)=O)cc1` [Example 22, 6-bromo-N-[5-carbamoyl-1-(4-cyanobenzyl)-1H-pyrazol-4-yl]-2-(trifluoromethyl)quinoline-4-carboxamide], the concentration for half-maximal inhibition (IC50) is 0.387 µM.

Regarding `Cc1c(NC(=O)c2cc(C3CC3)nc3ccc(Br)cc23)cnn1Cc1ccc(C#N)cc1` [Example 23, 6-bromo-N-[1-(4-cyanobenzyl)-5-methyl-1H-pyrazol-4-yl]-2-cyclopropylquinoline-4-carboxamide], the half-maximal inhibitory concentration (IC50) was determined as 0.0029 µM.

As for `Cc1c(NC(=O)c2cc(C(N)=O)nc3cc(F)ccc23)cnn1Cc1ccc(C#N)cc1` [Example 24, N^4-[1-(4-cyanobenzyl)-5-methyl-1H-pyrazol-4-yl]-7-fluoroquinoline-2,4-dicarboxamide], the concentration for half-maximal inhibition (IC50) is 0.0071 µM.

Consider `Cc1c(NC(=O)c2cc(C(N)=O)nc3cc(F)c(Cl)cc23)cnn1Cc1ccc(C#N)cc1` [Example 25, 6-chloro-N^4-[1-(4-cyanobenzyl)-5-methyl-1H-pyrazol-4-yl]-7-fluoroquinoline-2,4-dicarboxamide], for which the concentration for half-maximal inhibition (IC50) turned out to be 0.0065 µM.

For `Cc1c(NC(=O)c2cc(C(N)=O)nc3ccccc23)cnn1Cc1ccc(F)c(F)c1` [Example 26, N^4-[1-(3,4-difluorobenzyl)-5-methyl-1H-pyrazol-4-yl]quinoline-2,4-dicarboxamide], the IC50 was 0.095 µM.

Turning to `Cc1c(NC(=O)c2cc(C(N)=O)nc3ccccc23)cnn1Cc1cccc(F)c1` [Example 27, N^4-[1-(3-fluorobenzyl)-5-methyl-1H-pyrazol-4-yl]quinoline-2,4-dicarboxamide], the IC50 turned out to be 0.052 µM.

For `Cc1c(NC(=O)c2cc(C(N)=O)nc3ccccc23)cnn1CC1CCCCC1` [Example 28, N^4-[1-(cyclohexylmethyl)-5-methyl-1H-pyrazol-4-yl]quinoline-2,4-dicarboxamide], the IC50 turned out to be 0.349 µM.

In the case of `Cc1c(NC(=O)c2cc(C(N)=O)nc3ccccc23)cnn1Cc1ccncc1` [Example 29, N^4-[5-methyl-1-(pyridin-4-ylmethyl)-1H-pyrazol-4-yl]quinoline-2,4-dicarboxamide], the 50% inhibitory concentration (IC50) amounted to 2.15 µM.

In the case of `CCc1c(NC(=O)c2cc(C(N)=O)nc3cc(F)ccc23)cnn1Cc1ccc(C#N)cc1` [Example 30, N^4-[1-(4-cyanobenzyl)-5-ethyl-1H-pyrazol-4-yl]-7-fluoroquinoline-2,4-dicarboxamide], the IC50 is 0.046 µM.

With `CCc1c(NC(=O)c2cc(C(N)=O)nc3ccccc23)cnn1Cc1ccc(C#N)cc1` [Example 31, N^4-[1-(4-cyanobenzyl)-5-ethyl-1H-pyrazol-4-yl]quinoline-2,4-dicarboxamide], the half-maximal inhibitory concentration (IC50) came to 0.201 µM.

Regarding `CCc1c(NC(=O)c2cc(C(N)=O)nc3cc(F)c(Cl)cc23)cnn1Cc1ccc(C#N)cc1` [Example 32, 6-chloro-N^4-[1-(4-cyanobenzyl)-5-ethyl-1H-pyrazol-4-yl]-7-fluoroquinoline-2,4-dicarboxamide], the concentration for half-maximal inhibition (IC50) amounted to 0.043 µM.

`CC(C)c1c(NC(=O)c2cc(C(N)=O)nc3cc(F)ccc23)cnn1Cc1ccc(C#N)cc1` [Example 33, N^4-[1-(4-cyanobenzyl)-5-isopropyl-1H-pyrazol-4-yl]-7-fluoroquinoline-2,4-dicarboxamide]: the half-inhibitory concentration (IC50) was 0.94 µM.
